103 molecules from ChEMBL document CHEMBL3507680, “University of Dundee, Gates Library screen for HepG2 cell viability” can be followed below.

The series in a line: Human HepG2 cell viability assay in 384 well format. The class given is toxicity, cell-based. The arrangement: dose 125 nL, time 70.5 hour; cytotoxicity at 70.5 h: concentration not given beside the values. As to conditions: HepG2 cells, read-out: Inhibition.

Turning to `Cc1n[nH]c(C)c1C1CCCN1C(=O)NCC(=O)Nc1ccccc1` (stereo not drawn), the cytotoxicity at 70.5 h came out at 6.46%.

Take `Cc1cc(CN(Cc2cccnc2)CC2CCCO2)on1` (stereo not drawn): the cytotoxicity at 70.5 h is -1.62%.

In the case of `Cc1cnc(CN2CCN(c3nc(C)cs3)C(C)C2)cn1` (stereo not drawn), the cytotoxicity at 70.5 h was -16.4%.

Regarding `Cc1n[nH]c(C)c1C1CCCN1C(=O)NC(C)(C)C` (stereo not drawn), the cytotoxicity at 70.5 h stood at 4.46%.

Regarding `Cc1n[nH]c(C)c1C1CCCN1C(=O)Cc1cccc(F)c1` (stereo not drawn), the cytotoxicity at 70.5 h is -19.6%.

In the case of `CCCN1CCC(CNC(=O)N2CCCC2c2c(C)n[nH]c2C)CC1` (stereo not drawn), the cytotoxicity at 70.5 h worked out at 3.87%.

As for `CC1CN(C)c2ccccc2CN1C(=O)c1ccncc1F` (stereo not drawn), the cytotoxicity at 70.5 h is 35%.

Take `Cc1nc(C)n(CC2CN(CCn3cccn3)CCO2)n1` (stereo not drawn): the cytotoxicity at 70.5 h amounted to 31.9%.

Turning to `Cc1ccc(OCCC(=O)NC(C)c2ccncc2)cc1` (stereo not drawn), the cytotoxicity at 70.5 h is -2.16%.

`CS(=O)(=O)NCC1CCCN(C(=O)c2ccc3c(c2)CCC3)C1` (stereo not drawn): the cytotoxicity at 70.5 h came to 3.24%.

Turning to `Cc1nccn1-c1cc(CNC(=O)c2ccnc(N(C)C)c2)ccn1`, the cytotoxicity at 70.5 h was -10.5%.

Take `CC(C)S(=O)(=O)NCC1CCCN(C(=O)c2ccc(Cl)cc2)C1` (stereo not drawn): the cytotoxicity at 70.5 h amounted to 6.86%.

Take `Cc1occc1C(=O)N1CCCN(Cc2cnn(C(C)C)c2)CC1`: the cytotoxicity at 70.5 h was -6.65%.

On to `Cc1nc(C)n(CC2CN(CCCc3ccccc3)CCO2)n1` (stereo not drawn), for which the cytotoxicity at 70.5 h is -4.71%.

Take `COc1ccc(CCN2CCOC(Cn3nc(C)nc3C)C2)cc1` (stereo not drawn): the cytotoxicity at 70.5 h was -5.86%.

Consider `Cc1cc(C)cc(C(=O)Nc2ccc(CC3CC(=O)NC3=O)cc2)c1` (stereo not drawn), for which the cytotoxicity at 70.5 h is -1.28%.

With `C1CN(c2nc(C3CC3)ns2)CCO1`, the cytotoxicity at 70.5 h is -5.18%.

For `O=C(NCCOc1ncc(Cl)cc1Cl)c1ccoc1`, the cytotoxicity at 70.5 h amounted to 21.7%.

Consider `O=C(NCCOc1ncc(Cl)cc1Cl)c1cccnc1`, for which the cytotoxicity at 70.5 h turned out to be 8.03%.

With `CCc1ccc(C(=O)Nc2ccc(CC3CC(=O)NC3=O)cc2)s1` (stereo not drawn), the cytotoxicity at 70.5 h is -4%.

On to `CCc1ccc(CNCC2CCN(CCO)CC2)cc1`, for which the cytotoxicity at 70.5 h was 16.5%.

As to `Cc1ccc2c(c1)OC1(NC2=O)C(=O)N(C)c2ccccc21` (stereo not drawn), the cytotoxicity at 70.5 h was 16.7%.

Consider `Cc1ccc(CNC(c2ccc(F)cc2)c2nccn2C)o1` (stereo not drawn), for which the cytotoxicity at 70.5 h was -7.32%.

Consider `Cc1cc(C(C)NC(=O)CCN2C(=O)c3ccccc3C2=O)c(C)o1` (stereo not drawn), for which the cytotoxicity at 70.5 h was 28.1%.

For the molecule `O=C(NCCCn1cncn1)c1ccc(-c2ccco2)[nH]c1=O`, the cytotoxicity at 70.5 h is -3.92%.

With `O=C(NCCCn1cncn1)c1ccc(-c2ccccc2)[nH]c1=O`, the cytotoxicity at 70.5 h is -11.4%.

Turning to `Cc1cc(C(=O)NCC2(C(N)=O)CCOCC2)nn1C(C)(C)C`, the cytotoxicity at 70.5 h was -6.96%.

Consider `CC(C)(C)n1nc(C(=O)NCC2(C(N)=O)CCOCC2)cc1C1CC1`, for which the cytotoxicity at 70.5 h is -22.5%.

In the case of `CC(C)(C)n1nc(C2CC2)cc1C(=O)NCC1(C(N)=O)CCOCC1`, the cytotoxicity at 70.5 h came to 22.2%.

As for `Cc1nn(C(C)(C)C)c(C)c1C(=O)NCC1(C(N)=O)CCOCC1`, the cytotoxicity at 70.5 h was -8.76%.

In the case of `CC1CN(C)CCN1C(=O)c1cnn(-c2ccc(Cl)cc2)c1` (stereo not drawn), the cytotoxicity at 70.5 h came to 19.4%.

Regarding `CCC(C)NC(=O)c1ccc(NC(=O)CCc2ccncc2)c(C)c1` (stereo not drawn), the cytotoxicity at 70.5 h is -3.96%.

`Cc1noc(C)c1CSc1nc(=O)ccn1C(C)C`: the cytotoxicity at 70.5 h is -3.07%.

For the molecule `Cc1nc(CN2CCCC(N(C)c3cnc4ccccc4n3)C2)no1` (stereo not drawn), the cytotoxicity at 70.5 h amounted to 20.5%.

As to `O=C(NCc1ccccc1CO)C1COc2ccccc21` (stereo not drawn), the cytotoxicity at 70.5 h was -0.572%.

In the case of `CS(=O)(=O)c1nccn1Cc1ccncc1`, the cytotoxicity at 70.5 h is -4.41%.

`CC(CC(=O)N1CCCS1(=O)=O)c1ccccc1C(F)(F)F` (stereo not drawn): the cytotoxicity at 70.5 h came to 3.27%.

Regarding `CCC(C)NC(=O)c1ccc(NC(=O)CCCn2cncn2)c(C)c1` (stereo not drawn), the cytotoxicity at 70.5 h amounted to 14.8%.

As to `N#CC(NC(=O)CCC1CCC1)c1cnn(-c2ccccc2)c1` (stereo not drawn), the cytotoxicity at 70.5 h is 17.3%.

Regarding `N#CC(NC(=O)CC1CCSCC1)c1cnn(-c2ccccc2)c1` (stereo not drawn), the cytotoxicity at 70.5 h is -3.51%.

In the case of `CS(=O)(=O)c1nccn1Cc1ccc(OC(F)F)cc1`, the cytotoxicity at 70.5 h was -4.68%.

For the molecule `O=C(c1cc[nH]n1)N(Cc1cccc(O)c1)CC1CC1`, the cytotoxicity at 70.5 h is -7.41%.

On to `CC(NCCn1c(=O)oc2ccccc21)c1ccccn1` (stereo not drawn), for which the cytotoxicity at 70.5 h was -5.54%.

For `Cc1nnc2n1CCN(C(C)c1nnc(-c3cccs3)o1)C2` (stereo not drawn), the cytotoxicity at 70.5 h is -8.71%.

Consider `O=C(c1cc2ccccc2o1)N1CCN(Cn2cc(Cl)cn2)CC1`, for which the cytotoxicity at 70.5 h was -5.33%.

As to `Cc1noc(C)c1CN(C)C(=O)CCOc1ccc(Cl)cc1`, the cytotoxicity at 70.5 h is -11.7%.

Regarding `Cc1cc(C(=O)N2CCN(Cn3cc(Cl)cn3)CC2)on1`, the cytotoxicity at 70.5 h was -8.38%.

For `Cc1ccc(-c2nnc(C(C)N3CCn4c(C)nnc4C3)o2)cc1` (stereo not drawn), the cytotoxicity at 70.5 h is -1.43%.

Turning to `CC(NC(N)=O)C(=O)Nc1ccc(OCc2cccc(F)c2)c(F)c1` (stereo not drawn), the cytotoxicity at 70.5 h is -10.3%.

As for `Cc1cccc(COc2ccc(NC(=O)C(C)NC(N)=O)c(C)c2)c1` (stereo not drawn), the cytotoxicity at 70.5 h was -9.19%.

Take `Cc1ccccc1OCCC(=O)N(C)Cc1c(C)noc1C`: the cytotoxicity at 70.5 h is -11.1%.

`CSC(C)C(=O)N1CCN(CC(C)(C)O)CC1` (stereo not drawn): the cytotoxicity at 70.5 h is -14%.

Consider `CC(C)c1ccc(C(=O)O)cc1S(=O)(=O)Nc1ccc(=O)n(C)c1`, for which the cytotoxicity at 70.5 h worked out at 2.84%.

As to `CCN1CCN(C(=O)Cc2ccc(S(=O)(=O)C(F)F)cc2)CC1`, the cytotoxicity at 70.5 h was found to be 5.94%.

For the molecule `CC(c1nnc(-c2cccs2)o1)N1CCn2c(nnc2C2CC2)C1` (stereo not drawn), the cytotoxicity at 70.5 h is -0.792%.

With `Cc1csc(C(C#N)C(=O)Nc2ccccc2)n1` (stereo not drawn), the cytotoxicity at 70.5 h was -0.341%.

For `Cc1noc(C)c1CNC(C(=O)N1CCOCC1)C(C)C` (stereo not drawn), the cytotoxicity at 70.5 h was -7.07%.

Turning to `CCC1CN(C(=O)c2cnc(-c3ccccc3)s2)CCO1` (stereo not drawn), the cytotoxicity at 70.5 h was -1.27%.

In the case of `CCc1ccsc1C(=O)N1CCN(C(=O)c2ccc(C)o2)CC1`, the cytotoxicity at 70.5 h is -5.92%.

With `COC(=O)c1sccc1CN1CCN(C(=O)c2ccc(C)o2)CC1`, the cytotoxicity at 70.5 h is -8.65%.

For `CCCNC(=O)CSCc1ccc(S(=O)(=O)N(C)C)o1`, the cytotoxicity at 70.5 h is -6.98%.

As to `CC(C)C(c1cccnc1)N(C)C(=O)Cc1ccc(O)cc1` (stereo not drawn), the cytotoxicity at 70.5 h was determined as 0.393%.

On to `Cc1cnc(CN(C)C2CCN(Cc3nc4c(F)cccc4[nH]3)C2)o1` (stereo not drawn), for which the cytotoxicity at 70.5 h turned out to be 1.64%.

With `COCC(O)CN(C)c1ccnc2ccc(Cl)cc12` (stereo not drawn), the cytotoxicity at 70.5 h was found to be 13.9%.

Turning to `Cc1noc(C)c1CCC(=O)Nc1ccn(C)n1`, the cytotoxicity at 70.5 h worked out at 1.75%.

`Cc1noc(C)c1C(=O)N1CCSc2ccc(Cl)cc21`: the cytotoxicity at 70.5 h came to 11.5%.

Take `Cc1cc(C)cc(OCCN(C)Cc2ccc(S(=O)(=O)N(C)C)o2)c1`: the cytotoxicity at 70.5 h amounted to 19.6%.

Take `Cc1cc(C(=O)N2CCCC(c3nncn3C)C2)no1` (stereo not drawn): the cytotoxicity at 70.5 h was -5.95%.

For the molecule `O=C(Nc1ccccn1)C1CCN(Cc2cc3c(cc2O)OCO3)CC1`, the cytotoxicity at 70.5 h was determined as 3.83%.

Regarding `CC1CCN(S(=O)(=O)N2Cc3ccccc3C[C@H]2C(N)=O)CC1`, the cytotoxicity at 70.5 h was -4.51%.

On to `CC(=O)N(C)c1nc(Cn2nnnc2C(C)C)cs1`, for which the cytotoxicity at 70.5 h is -6.77%.

Regarding `O=C(NCC1CCN(CCc2ccccc2)C1)c1cc(Cl)c[nH]1` (stereo not drawn), the cytotoxicity at 70.5 h is 2.19%.

For `CCn1nc(C)cc1C(=O)NCc1nc(C)no1`, the cytotoxicity at 70.5 h is -6.53%.

As for `O=C(NCc1nc2cc(F)ccc2[nH]1)c1ccc[nH]1`, the cytotoxicity at 70.5 h worked out at 17.9%.

Take `CN(CC(F)(F)F)C(=O)CNC(=O)N1CCC(N2CCCC2)C1` (stereo not drawn): the cytotoxicity at 70.5 h was -9.53%.

In the case of `CCCc1nnnn1CC(=O)NCc1cccc(C)c1`, the cytotoxicity at 70.5 h was -3.35%.

For the molecule `CCc1cnccc1C(=O)NC1CCN(Cc2ccccc2F)CC1`, the cytotoxicity at 70.5 h is -6.35%.

`CC1COCCN1Cc1nc(C(C)(C)C)no1` (stereo not drawn): the cytotoxicity at 70.5 h is -6.43%.

Take `CCc1nnc(CN(C)CC2CCCCC2)o1`: the cytotoxicity at 70.5 h is -0.472%.

On to `COCC(O)CN(C)c1ccnc2cc(Br)ccc12` (stereo not drawn), for which the cytotoxicity at 70.5 h was -6.19%.

`Cc1nn(C)cc1CN(C)Cc1cc2c(cc1OC(F)F)OCO2`: the cytotoxicity at 70.5 h was -7.7%.

For `O=S(=O)(c1ccccc1)N1CCCN(CCCn2ccnc2)CC1`, the cytotoxicity at 70.5 h is -10.3%.

Turning to `CCC(C)CNc1ccc2oc(COC)nc2c1` (stereo not drawn), the cytotoxicity at 70.5 h amounted to 42.8%.

Consider `NS(=O)(=O)c1ccc(NC(=O)CSc2ccc3c(c2)CCC3)cc1`, for which the cytotoxicity at 70.5 h was -2.39%.

Take `c1ccc(COC2CCN(c3cncc(-n4cccn4)n3)CC2)cc1`: the cytotoxicity at 70.5 h was -9.06%.

`CCNC(=O)N(C)Cc1ccc(SC)c(OC)c1`: the cytotoxicity at 70.5 h was -7.42%.

For `CC(=O)c1cccc(NC(=O)CN2CCCCC2C2OCCO2)c1` (stereo not drawn), the cytotoxicity at 70.5 h was -1.12%.

For `Cn1cnnc1C1CCN(c2cncc(-n3cccn3)n2)CC1`, the cytotoxicity at 70.5 h stood at 1.11%.

For `COc1ccc(CNC2CCN(CCc3ccncc3)CC2)cc1O`, the cytotoxicity at 70.5 h is -6.38%.

As to `Cc1ccc(C(CNCc2ccncc2)N2CCOCC2)s1` (stereo not drawn), the cytotoxicity at 70.5 h stood at 18.9%.

With `O=C(C1SCCc2sccc21)N1CCN(CCO)CC1` (stereo not drawn), the cytotoxicity at 70.5 h was -2.81%.

In the case of `O=C(C1SCCc2sccc21)N1CCC(O)CC1` (stereo not drawn), the cytotoxicity at 70.5 h amounted to 1.7%.

As for `O=C(CN1CCCCC1C1OCCO1)Nc1ccc(F)c(F)c1` (stereo not drawn), the cytotoxicity at 70.5 h was -2.55%.

Take `COC(=O)CCNC(=O)C1CC(=O)N(C2CCCC2)C1` (stereo not drawn): the cytotoxicity at 70.5 h came out at 0.402%.

Consider `CC(C)n1c(C2CCCN(CCS(C)(=O)=O)C2)nc2ccccc21` (stereo not drawn), for which the cytotoxicity at 70.5 h was -0.395%.

As to `Cc1ccc(CNC2CCN(CCc3ccncc3)CC2)cc1C`, the cytotoxicity at 70.5 h is 1.32%.

`CN(CC(=O)NCc1ccccn1)CC1CCCN1c1cccnn1` (stereo not drawn): the cytotoxicity at 70.5 h stood at 0.56%.

Turning to `Cc1ccc(C(CNCc2cnn(C(C)C)c2)N2CCOCC2)s1` (stereo not drawn), the cytotoxicity at 70.5 h is -0.62%.

As to `COc1ccc(C(=O)N(C)Cc2cccc(C#N)c2)c(OC)c1OC`, the cytotoxicity at 70.5 h is -5.18%.

As to `CCCn1nc2c(cc1=O)CN(Cc1nc(CCOC)no1)CC2`, the cytotoxicity at 70.5 h was -3.53%.

As to `CCN(CC)C(=O)Nc1cc2c(cc1SC)OCCO2`, the cytotoxicity at 70.5 h is -6.83%.

On to `Cc1cnn(C2CN(Cc3ccc4c(c3)OCCO4)C2)c1`, for which the cytotoxicity at 70.5 h was -10.6%.

For the molecule `FC(F)(F)C1CCCn2c(CNCc3ccsc3)nnc21` (stereo not drawn), the cytotoxicity at 70.5 h was -9.55%.
